# Patent US20090275497A1, “METHOD FOR IDENTIFYING MODULATORS OF THE ACTIVITY OF ION-CHANNELS RECEPTORS” (CENTRE NATIONAL DE LA RECHERCHE SCIENTIFIQUE (CNRS), priority 2004, published 2009)
# What was measured:
# [1] = test system: oocyte not expressing P2X and GABA receptors; assay: Calcium green fluorescence recording, oocytes expressing no receptors; format: cell-based, Xenopus; conditions: calcium green probe, FIG. 1
# Method: (§1) Then, using video-microscopy (Nikon), the fluorescence emitted by oocytes maintained in a standard solution (Ringer solution containing 1.8 mM calcium chloride), perfused at 3 ml/min, has been recorded. […] Variations in fluorescence were analysed using IpLab software.
# rat P2X2 receptors = molecular target: T1, rat P2X2 receptors (Rattus norvegicus, UniProt P49653); assay: Calcium green fluorescence recording, oocytes expressing P2X2 receptors alone; format: cell-based; conditions: oocytes expressing only P2X2 receptors, FIG. 2; for fluorescence (calcium influx) on application of the substance alone: calcium green probe
# T1 construct: expressed in transfected cells; host or cells: Xenopus oocytes (nuclear cDNA injection)
# T1 sequence (P49653 1-472): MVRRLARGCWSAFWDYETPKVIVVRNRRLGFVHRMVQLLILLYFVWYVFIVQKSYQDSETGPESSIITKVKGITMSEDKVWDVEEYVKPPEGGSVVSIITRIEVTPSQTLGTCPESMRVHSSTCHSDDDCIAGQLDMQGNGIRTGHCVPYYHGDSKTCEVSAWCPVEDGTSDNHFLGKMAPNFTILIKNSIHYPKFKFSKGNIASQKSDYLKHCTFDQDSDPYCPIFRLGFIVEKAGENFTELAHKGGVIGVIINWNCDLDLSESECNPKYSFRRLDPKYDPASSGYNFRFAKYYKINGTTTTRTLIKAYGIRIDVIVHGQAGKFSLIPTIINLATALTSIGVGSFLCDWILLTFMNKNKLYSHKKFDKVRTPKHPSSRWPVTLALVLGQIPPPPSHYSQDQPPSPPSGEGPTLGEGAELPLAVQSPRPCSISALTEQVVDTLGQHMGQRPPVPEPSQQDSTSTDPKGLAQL
# Method: as §1
# [2] = test system: P2X2 and GABA-A receptors (rat GABA-A alpha2 beta3); format: cell-based; conditions: for fluorescence of the calcium probe on application of the substance alone: 100 μM, oocytes co-expressing P2X2 and GABA-A receptors, resting potential
# Method: (§2) Variations in fluorescence were analysed using IpLab software.
# [3] = molecular target: T2, P2X2 and GABA-A receptors (rat GABA-A alpha2 beta3) (Rattus norvegicus, UniProt P23576+P63079); format: cell-based
# T2 construct: expressed in transfected cells; host or cells: Xenopus oocytes (nuclear cDNA injection)
# T2 sequence (P23576 29-451): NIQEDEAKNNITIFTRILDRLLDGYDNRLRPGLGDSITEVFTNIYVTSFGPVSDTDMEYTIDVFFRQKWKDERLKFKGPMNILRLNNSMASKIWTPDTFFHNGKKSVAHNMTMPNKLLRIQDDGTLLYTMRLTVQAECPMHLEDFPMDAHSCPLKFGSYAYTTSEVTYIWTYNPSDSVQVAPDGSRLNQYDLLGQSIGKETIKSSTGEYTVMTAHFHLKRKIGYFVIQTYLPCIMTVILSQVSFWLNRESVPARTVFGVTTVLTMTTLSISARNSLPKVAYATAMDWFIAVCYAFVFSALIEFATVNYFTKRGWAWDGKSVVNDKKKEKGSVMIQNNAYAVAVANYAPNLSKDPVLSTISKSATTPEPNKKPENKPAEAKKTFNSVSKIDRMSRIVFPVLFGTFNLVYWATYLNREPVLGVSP
# T2 sequence (P63079 26-473): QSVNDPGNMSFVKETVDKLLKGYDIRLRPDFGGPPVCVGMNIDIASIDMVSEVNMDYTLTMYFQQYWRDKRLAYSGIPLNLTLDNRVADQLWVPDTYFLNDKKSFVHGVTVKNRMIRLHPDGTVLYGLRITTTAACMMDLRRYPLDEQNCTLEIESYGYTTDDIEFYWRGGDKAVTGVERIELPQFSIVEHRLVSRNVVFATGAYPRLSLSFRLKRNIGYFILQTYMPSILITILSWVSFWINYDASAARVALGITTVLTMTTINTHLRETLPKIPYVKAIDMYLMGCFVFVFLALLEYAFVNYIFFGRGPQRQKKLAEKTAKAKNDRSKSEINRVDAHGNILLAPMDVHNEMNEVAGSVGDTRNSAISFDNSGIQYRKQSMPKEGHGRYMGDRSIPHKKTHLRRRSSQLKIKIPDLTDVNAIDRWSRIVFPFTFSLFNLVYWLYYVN
# Method: as §2
# [4] = oocyte co-expressing GABA-A and P2X2 receptors, FIG. 4
effect of GABA on the increase in fluorescence induced by ATP (rat P2X2 receptors; co-application ATP+GABA),"percentage inhibition of the ATP calcium response ([3]; co-application ATP+GABA 100 μM of each, depends on expression ratio of P2X and GABA receptors)","fluorescence intensity when GABA is applied at the peak of the ATP response [3, 4]","fluorescence when application of GABA is stopped during co-application of ATP and GABA [3, 4]","calcium response on co-application ATP+GABA compared with ATP alone ([2]; ATP+GABA 100 μM of each, FIG. 3)",Compound,modification of the fluorescence on application [1],fluorescence (calcium influx) on application of the substance alone (rat P2X2 receptors),fluorescence of the calcium probe on application of the substance alone [2]
–,–,–,–,–,Nc1ncnc2c1ncn2[C@@H]1O[C@H](COP(=O)(O)OP(=O)(O)OP(=O)(O)O)[C@@H](O)[C@H]1O [ATP],No modification,transient increase in fluorescence,marked transient increase
not altered,20-25%,decrease in fluorescence intensity,increase in fluorescence,lower calcium response,"NCCCC(=O)O [GABA, gamma-Aminobutyric acid]",No modification,no effect,does not modify fluorescence intensity
